# Data published in patent US11421044B2, “Nitric oxide-releasing antibacterial polymers and scaffolds fabricated therefrom and methods pertaining thereto” (THE UNIVERSITY OF NORTH CAROLINA AT CHAPEL HILL, priority 2018, dated 2022).
# How the values were obtained:
# Assay in all cases: Planktonic bactericidal assay, 4 h
# Settings in all cases: 4 h exposure
# MDR-P. aeruginosa = format: cell-based, multidrug-resistant P. aeruginosa (ATCC #BAA-2110)
# Procedure: (§1) Planktonic bactericidal assay. Bacterial cultures of P. aeruginosa, E. coli, E. faecalis, S. aureus, multidrug-resistant (MDR) P. aeruginosa, and methicillin-resistant S. aureus were grown from frozen (−80° C.) stocks overnight in TSB (3 mL) at 37° C. An aliquot (1 mL) of the overnight solution was recultured in fresh TSB (50 mL) to a concentration of 10^8 CFU mL^−1 and subsequently diluted to 10^6 CFU mL^−1 in PBS (10 mM, pH 7.4). Weighed samples of control (non-NO-releasing) HA, NO-releasing HA, or neomycin sulfate were dissolved in PBS and titrated with 1 M HCl to adjust the pH to 7.4.
# (§2) Samples were added to a 96-well polystyrene plate and serially diluted in PBS so that each well contained 100 μL of control HA, NO-releasing HA, or neomycin. Bacterial solution containing 10^6 CFU mL^−1 (100 μL; 1 vol % TSB supplemented PBS) was added to each well, giving final HA concentrations in the range of 0.25 to 32 mg mL^−1 or neomycin concentrations from 0.5 to 1024 μg mL^−1. The 96-well plate was then incubated at 37° C. for 4 h with gentle shaking. […] Viability of bacteria following treatment with HA or neomycin was determined using a Flash & Go colony counter (IUL; Farmingdale, N.Y.). […] The NO dose required for bactericidal action was calculated by multiplying the MBC4 h of the NO-releasing HA samples (mg mL^−1) with the total NO released in PBS (pH 7.4; μmol NO mg^−1 HA) at 4 h. […]
# E. faecalis = format: cell-based, Enterococcus faecalis (ATCC #29212)
# Procedure: as §1, §2
# S. aureus = format: cell-based, Staphylococcus aureus (ATCC #29213)
# Procedure: as §1, §2
# P. aeruginosa = format: cell-based, Pseudomonas aeruginosa (ATCC #47085)
# Procedure: as §1, §2
# MRSA = format: cell-based, methicillin-resistant S. aureus (ATCC #33591)
# Procedure: as §1, §2
# E. coli = format: cell-based, Escherichia coli (ATCC #43888)
# Procedure: as §1, §2
substance,measurement,setting,value
neomycin sulfate,Dose of neomycin for 3-log reduction,MDR-P. aeruginosa,128 μg mL^−1
same,Dose of neomycin for 3-log reduction,E. faecalis,64 μg mL^−1
same,Dose of neomycin for 3-log reduction,S. aureus,2 μg mL^−1
same,Dose of neomycin for 3-log reduction,P. aeruginosa,32 μg mL^−1
same,Dose of neomycin for 3-log reduction,MRSA,>1024 μg mL^−1
same,Dose of neomycin for 3-log reduction,E. coli,1 μg mL^−1
